From ChEMBL document CHEMBL3588841, “Synthesis and cancer cell growth inhibitory activity of icaritin derivatives” (Eur J Med Chem, 2015)

How the values were obtained:
[1] = Chemical stability of the compound in phosphate buffered saline assessed as decomposition at pH 7; assay type: physicochemical; conditions: read-out: Drug degradation
Vero = experiment: Cytotoxicity against African green monkey Vero cells assessed as cell viability by MTT assay; assay type: cell-based; conditions: Chlorocebus sabaeus
A549 [2] = experiment: Cytotoxicity against human A549 cells assessed as cell viability by MTT assay; assay type: functional, cell-based
[3] = Cytotoxicity against human MDA-MB-435S cells assessed as cell viability by MTT assay; assay type: functional, cell-based
MCF7 [4] = experiment: Cytotoxicity against human MCF7 cells assessed as cell viability by MTT assay; assay type: functional, cell-based
[5] = Ratio of tamoxifen to compound for human MDA-MB-435S cells assessed as cell viability by MTT assay; assay type: functional
MCF7 [6] = experiment: Ratio of icaritin to compound for human MCF7 cells assessed as cell viability by MTT assay; assay type: functional
A549 [7] = experiment: Ratio of icaritin to compound for human A549 cells assessed as cell viability by MTT assay; assay type: functional
MCF7 [8] = experiment: Ratio of tamoxifen to compound for human MCF7 cells assessed as cell viability by MTT assay; assay type: functional
[9] = Ratio of icaritin to compound for human MDA-MB-435S cells assessed as cell viability by MTT assay; assay type: functional
A549 [10] = experiment: Ratio of tamoxifen to compound for human A549 cells assessed as cell viability by MTT assay; assay type: functional

SMILES	IC50 (Vero)	IC50 (A549 [2])	IC50 ([3]; Homo sapiens, MDA-MB-435S)	IC50 (MCF7 [4])	also measured
COc1ccc(-c2oc3c(CC=C(C)C)c(OCCCOC(=O)CCCC(=O)O)cc(O)c3c(=O)c2OCCCOC(=O)CCCC(=O)O)cc1	6.3 µM	14.3 µM	8.1 µM	2.2 µM	degraded [1]: 7%
COc1ccc(-c2oc3c(CC=C(C)C)c(OC/C=C/C(=O)O)cc(O)c3c(=O)c2OC/C=C/C(=O)O)cc1	–	> 100 µM	57.5 µM	> 100 µM	–
COc1ccc(-c2oc3c(CC=C(C)C)c(OCCOC(=O)CCC(=O)O)cc(O)c3c(=O)c2OCCOC(=O)CCC(=O)O)cc1	–	> 100 µM	60.5 µM	> 100 µM	–
COc1ccc(-c2oc3c(CC=C(C)C)c(O)cc(O)c3c(=O)c2OC(C(=O)O)C(=O)O)cc1	–	> 100 µM	> 100 µM	> 100 µM	–
COc1ccc(-c2oc3c(CC=C(C)C)c(OC/C=C/C(=O)O)cc(O)c3c(=O)c2O)cc1	–	22.9 µM	11.3 µM	> 100 µM	–
COc1ccc(-c2oc3c(CC=C(C)C)c(OCCOC(=O)CCCC(=O)O)cc(O)c3c(=O)c2OCCOC(=O)CCCC(=O)O)cc1	> 100 µM	6.1 µM	6.3 µM	3 µM	degraded [1]: 7%
CCOC(=O)CCCOc1cc(O)c2c(=O)c(OCCCC(=O)OCC)c(-c3ccc(OC)cc3)oc2c1CC=C(C)C	–	> 100 µM	> 100 µM	> 100 µM	–
CCOC(=O)/C=C/COc1c(-c2ccc(OC)cc2)oc2c(CC=C(C)C)c(O)cc(O)c2c1=O	3.1 µM	4.7 µM	2.2 µM	10.3 µM	Ratio [5]: 2.5; Ratio (MCF7 [6]): 2.5; Ratio (A549 [7]): 2.5; Ratio (MCF7 [8]): 2.5; Ratio [9]: 2.5; Ratio (A549 [10]): 2.5
CCOC(=O)/C=C/COc1cc(O)c2c(=O)c(O)c(-c3ccc(OC)cc3)oc2c1CC=C(C)C	–	> 100 µM	> 100 µM	> 100 µM	–
COc1ccc(-c2oc3c(CC=C(C)C)c(OCCCC(=O)O)cc(O)c3c(=O)c2O)cc1	–	19.1 µM	12.7 µM	> 100 µM	–
COc1ccc(-c2oc3c(CC=C(C)C)c(O)cc(O)c3c(=O)c2O)cc1 [ICARITIN]	21.6 µM	> 100 µM	24.9 µM	7 µM	–
COc1ccc(-c2oc3c(CC=C(C)C)c(OCC(=O)O)cc(O)c3c(=O)c2O)cc1	–	16.7 µM	13.5 µM	> 100 µM	–
CCOC(=O)COc1c(-c2ccc(OC)cc2)oc2c(CC=C(C)C)c(O)cc(O)c2c1=O	–	65.2 µM	30 µM	> 100 µM	–
COc1ccc(-c2oc3c(CC=C(C)C)c(O)cc(O)c3c(=O)c2OCC(=O)O)cc1	–	43.4 µM	17.8 µM	82.5 µM	–
CCOC(=O)COc1cc(O)c2c(=O)c(OCC(=O)OCC)c(-c3ccc(OC)cc3)oc2c1CC=C(C)C	–	> 100 µM	> 100 µM	> 100 µM	–
COc1ccc(-c2oc3c(CC=C(C)C)c(OC(C)C(=O)O)cc(O)c3c(=O)c2O)cc1 (racemic)	19.3 µM	15.3 µM	5.7 µM	> 100 µM	–
CCOC(=O)/C=C/COc1cc(O)c2c(=O)c(OC/C=C/C(=O)OCC)c(-c3ccc(OC)cc3)oc2c1CC=C(C)C	–	> 100 µM	> 100 µM	> 100 µM	–
COc1ccc(-c2oc3c(CC=C(C)C)c(O)cc(O)c3c(=O)c2OC/C=C/C(=O)O)cc1	7.1 µM	10.7 µM	8.3 µM	48.9 µM	–
CCOC(=O)C(C)Oc1cc(O)c2c(=O)c(O)c(-c3ccc(OC)cc3)oc2c1CC=C(C)C (racemic)	1.4 µM	26.5 µM	2.5 µM	> 100 µM	degraded [1]: 25%

SMILES	IC50 (Vero)	IC50 (A549 [2])	IC50 ([3]; Homo sapiens, MDA-MB-435S)	IC50 (MCF7 [4])	also measured
COc1ccc(-c2oc3c(CC=C(C)C)c(OCCCC(=O)O)cc(O)c3c(=O)c2OCCCC(=O)O)cc1	–	26 µM	31.1 µM	> 100 µM	–
CCOC(=O)C(Oc1c(-c2ccc(OC)cc2)oc2c(CC=C(C)C)c(O)cc(O)c2c1=O)C(=O)OCC	4.4 µM	19.3 µM	4.4 µM	17.2 µM	–
CCOC(=O)C(C)Oc1cc(O)c2c(=O)c(OC(C)C(=O)OCC)c(-c3ccc(OC)cc3)oc2c1CC=C(C)C (single isomer, unassigned; diastereomer 2)	–	> 100 µM	> 100 µM	> 100 µM	–
CCOC(=O)CCCOc1cc(O)c2c(=O)c(O)c(-c3ccc(OC)cc3)oc2c1CC=C(C)C	–	> 100 µM	> 100 µM	> 100 µM	–
COc1ccc(-c2oc3c(CC=C(C)C)c(O)cc(O)c3c(=O)c2OCCCC(=O)O)cc1	55.9 µM	23.9 µM	10 µM	> 100 µM	–
COc1ccc(-c2oc3c(CC=C(C)C)c(OCCCO)cc(O)c3c(=O)c2OCCCO)cc1	–	> 100 µM	21.8 µM	> 100 µM	–
CCOC(=O)C(Oc1cc(O)c2c(=O)c(OC(C(=O)OCC)C(=O)OCC)c(-c3ccc(OC)cc3)oc2c1CC=C(C)C)C(=O)OCC	–	> 100 µM	85 µM	> 100 µM	–
COc1ccc(-c2oc3c(CC=C(C)C)c(OC(C)C(=O)O)cc(O)c3c(=O)c2OC(C)C(=O)O)cc1 (stereo in doubt; 3c)	–	> 100 µM	–	> 100 µM	IC50 ([3]; mda-mb-435s): > 100 µM
COc1ccc(-c2oc3c(CC=C(C)C)c(OC(C)C(=O)O)cc(O)c3c(=O)c2OC(C)C(=O)O)cc1 (stereo in doubt; 3b)	–	–	–	–	IC50 ([3]; mda-mb-435s): 26.7 µM
CC/C(=C(\c1ccccc1)c1ccc(OCCN(C)C)cc1)c1ccccc1 [TAMOXIFEN]	5.7 µM	8.4 µM	5.5 µM	3.8 µM	–
COc1ccc(-c2oc3c(CC=C(C)C)c(OCC(=O)O)cc(O)c3c(=O)c2OCC(=O)O)cc1	–	> 100 µM	> 100 µM	> 100 µM	–
COc1ccc(-c2oc3c(CC=C(C)C)c(OCCO)cc(O)c3c(=O)c2OCCO)cc1	–	> 100 µM	> 100 µM	> 100 µM	–
CCOC(=O)C(C)Oc1c(-c2ccc(OC)cc2)oc2c(CC=C(C)C)c(O)cc(O)c2c1=O (racemic)	6.5 µM	4.6 µM	4.1 µM	4.7 µM	degraded [1]: 7%
COc1ccc(-c2oc3c(CC=C(C)C)c(OCCCOC(=O)CCC(=O)O)cc(O)c3c(=O)c2OCCCOC(=O)CCC(=O)O)cc1	14.5 µM	18.4 µM	6.4 µM	> 100 µM	–
CCOC(=O)CCCOc1c(-c2ccc(OC)cc2)oc2c(CC=C(C)C)c(O)cc(O)c2c1=O	5.8 µM	11 µM	8.8 µM	3 µM	–
COc1ccc(-c2oc3c(CC=C(C)C)c(OC(C(=O)O)C(=O)O)cc(O)c3c(=O)c2OC(C(=O)O)C(=O)O)cc1	–	> 100 µM	78.9 µM	> 100 µM	–
CCOC(=O)COc1cc(O)c2c(=O)c(O)c(-c3ccc(OC)cc3)oc2c1CC=C(C)C	1.4 µM	41.6 µM	5.3 µM	27.9 µM	–
COc1ccc(-c2oc3c(CC=C(C)C)c(O)cc(O)c3c(=O)c2OC(C)C(=O)O)cc1 (racemic)	36.6 µM	40.7 µM	7.5 µM	> 100 µM	–
